Assay results: paper PMC11655547, “Dual functions of silibinin in attenuating aortic dissection via regulating iron homeostasis and endoplasmic reticulum stress against ferroptosis” (Cell Death & Disease, 2024)

Molecular target: T1, HMOX1 (heme oxygenase 1) (Homo sapiens, UniProt P09601)
T1 sequence (P09601 1-288): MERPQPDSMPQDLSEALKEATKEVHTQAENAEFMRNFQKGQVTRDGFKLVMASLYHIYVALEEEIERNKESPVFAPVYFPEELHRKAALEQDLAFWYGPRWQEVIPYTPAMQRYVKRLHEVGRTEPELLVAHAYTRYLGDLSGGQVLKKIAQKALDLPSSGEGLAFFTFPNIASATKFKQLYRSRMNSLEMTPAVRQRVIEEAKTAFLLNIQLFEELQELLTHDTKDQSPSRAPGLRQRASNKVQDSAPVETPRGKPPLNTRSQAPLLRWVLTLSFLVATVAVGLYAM
Assay: SPR ([…] SIL); supported by CETSA and DARTS
Type: binding

Kd: 46 µM
SMILES: COc1cc(C2Oc3cc([C@H]4Oc5cc(O)cc(O)c5C(=O)[C@@H]4O)ccc3OC2CO)ccc1O (stereo partly shown) [SIL, Silibinin]
